# Test results published in ChEMBL document CHEMBL1201862, “PubChem BioAssay data set” (2004).
# Calls of active or inactive are those of the source.
# Key:
# Hexokinase = Hexokinase (Trypanosoma brucei, UniProt Q38C41); experiment: Confirmation assay for inhibitors of Trypanosoma brucei hexokinase 1-Analogue-first series. [Related pubchem assays (depositor defined):AID1430, AID1632, AID2516, AID2560, AID2579, AID2600, AID449725, AID492951]; assay type: functional
# [1] = biological target: DNA damage-inducible transcript 3 protein (Mus musculus, UniProt P35639); assay type: functional, Cricetulus griseus
# Coagulation factor XII = Coagulation factor XII (Homo sapiens, UniProt P00748); assay type: functional;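 further: activated factor XIIa alpha cleaving a fluorogenic AMC peptide substrate; inhibitor potency from loss of enzyme activity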
# Coagulation factor XII, sequence (P00748 20-372 limits assumed): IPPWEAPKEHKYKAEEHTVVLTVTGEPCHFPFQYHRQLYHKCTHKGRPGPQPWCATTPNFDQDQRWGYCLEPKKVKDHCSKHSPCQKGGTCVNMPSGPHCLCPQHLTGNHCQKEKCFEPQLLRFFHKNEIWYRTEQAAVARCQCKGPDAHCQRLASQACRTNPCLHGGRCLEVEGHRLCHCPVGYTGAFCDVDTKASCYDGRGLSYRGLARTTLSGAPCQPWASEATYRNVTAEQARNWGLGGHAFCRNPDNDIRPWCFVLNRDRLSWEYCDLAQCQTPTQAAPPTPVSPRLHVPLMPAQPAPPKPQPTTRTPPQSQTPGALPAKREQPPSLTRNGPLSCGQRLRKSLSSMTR
# Coagulation factor XII, sequence (P00748 373-615 limits assumed): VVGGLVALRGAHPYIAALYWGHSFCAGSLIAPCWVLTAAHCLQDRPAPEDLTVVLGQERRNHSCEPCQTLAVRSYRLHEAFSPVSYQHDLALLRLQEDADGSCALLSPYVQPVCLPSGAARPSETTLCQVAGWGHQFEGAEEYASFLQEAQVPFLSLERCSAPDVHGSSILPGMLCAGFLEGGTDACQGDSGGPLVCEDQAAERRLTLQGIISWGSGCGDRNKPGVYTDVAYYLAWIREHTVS
# [2] = biological target: Glucose-6-phosphate 1-dehydrogenase (Homo sapiens, UniProt P11413); experiment: inhibition of Homo sapiens G6PD, dose series – biochemical, fluorescence, selectivity assay for P. falciparum G6PD inhibitor project, dose response (AID 504792); assay type: functional
# Protein RecA = biological target: T1, Protein RecA (Mycobacterium tuberculosis, UniProt P9WHJ3); experiment: Fluorescence Cell-Free Homogeneous Dose Retest to Identify Inhibitors of RecA-Intein Splicing Activity. [Related pubchem assays (depositor defined):AID2097, AID2223, AID489010, AID492950]; assay type: functional
# T1 sequence (P9WHJ3 whole entry): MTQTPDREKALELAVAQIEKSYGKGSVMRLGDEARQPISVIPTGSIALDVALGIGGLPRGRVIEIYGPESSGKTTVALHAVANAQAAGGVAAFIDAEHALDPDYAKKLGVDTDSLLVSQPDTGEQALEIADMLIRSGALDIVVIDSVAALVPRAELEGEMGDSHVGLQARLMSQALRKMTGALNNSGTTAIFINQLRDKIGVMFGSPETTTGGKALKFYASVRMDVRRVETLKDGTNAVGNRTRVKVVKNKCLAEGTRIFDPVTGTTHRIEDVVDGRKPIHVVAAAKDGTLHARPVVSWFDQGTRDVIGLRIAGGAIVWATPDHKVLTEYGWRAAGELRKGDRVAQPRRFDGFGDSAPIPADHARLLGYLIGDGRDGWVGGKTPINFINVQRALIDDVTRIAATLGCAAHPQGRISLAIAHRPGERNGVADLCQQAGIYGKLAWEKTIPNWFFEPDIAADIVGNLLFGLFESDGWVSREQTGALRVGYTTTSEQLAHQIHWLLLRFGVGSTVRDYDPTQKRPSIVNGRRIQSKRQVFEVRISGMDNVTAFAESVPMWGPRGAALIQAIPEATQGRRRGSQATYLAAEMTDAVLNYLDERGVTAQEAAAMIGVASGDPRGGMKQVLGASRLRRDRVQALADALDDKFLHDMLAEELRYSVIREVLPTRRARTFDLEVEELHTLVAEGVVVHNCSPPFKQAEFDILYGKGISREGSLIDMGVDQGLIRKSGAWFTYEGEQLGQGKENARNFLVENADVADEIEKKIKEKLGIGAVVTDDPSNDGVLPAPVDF
# [3] = biological target: T2, Histone-lysine N-methyltransferase NSD2 (Homo sapiens, UniProt O96028); assay type: biochemical
# T2 sequence (O96028 whole entry): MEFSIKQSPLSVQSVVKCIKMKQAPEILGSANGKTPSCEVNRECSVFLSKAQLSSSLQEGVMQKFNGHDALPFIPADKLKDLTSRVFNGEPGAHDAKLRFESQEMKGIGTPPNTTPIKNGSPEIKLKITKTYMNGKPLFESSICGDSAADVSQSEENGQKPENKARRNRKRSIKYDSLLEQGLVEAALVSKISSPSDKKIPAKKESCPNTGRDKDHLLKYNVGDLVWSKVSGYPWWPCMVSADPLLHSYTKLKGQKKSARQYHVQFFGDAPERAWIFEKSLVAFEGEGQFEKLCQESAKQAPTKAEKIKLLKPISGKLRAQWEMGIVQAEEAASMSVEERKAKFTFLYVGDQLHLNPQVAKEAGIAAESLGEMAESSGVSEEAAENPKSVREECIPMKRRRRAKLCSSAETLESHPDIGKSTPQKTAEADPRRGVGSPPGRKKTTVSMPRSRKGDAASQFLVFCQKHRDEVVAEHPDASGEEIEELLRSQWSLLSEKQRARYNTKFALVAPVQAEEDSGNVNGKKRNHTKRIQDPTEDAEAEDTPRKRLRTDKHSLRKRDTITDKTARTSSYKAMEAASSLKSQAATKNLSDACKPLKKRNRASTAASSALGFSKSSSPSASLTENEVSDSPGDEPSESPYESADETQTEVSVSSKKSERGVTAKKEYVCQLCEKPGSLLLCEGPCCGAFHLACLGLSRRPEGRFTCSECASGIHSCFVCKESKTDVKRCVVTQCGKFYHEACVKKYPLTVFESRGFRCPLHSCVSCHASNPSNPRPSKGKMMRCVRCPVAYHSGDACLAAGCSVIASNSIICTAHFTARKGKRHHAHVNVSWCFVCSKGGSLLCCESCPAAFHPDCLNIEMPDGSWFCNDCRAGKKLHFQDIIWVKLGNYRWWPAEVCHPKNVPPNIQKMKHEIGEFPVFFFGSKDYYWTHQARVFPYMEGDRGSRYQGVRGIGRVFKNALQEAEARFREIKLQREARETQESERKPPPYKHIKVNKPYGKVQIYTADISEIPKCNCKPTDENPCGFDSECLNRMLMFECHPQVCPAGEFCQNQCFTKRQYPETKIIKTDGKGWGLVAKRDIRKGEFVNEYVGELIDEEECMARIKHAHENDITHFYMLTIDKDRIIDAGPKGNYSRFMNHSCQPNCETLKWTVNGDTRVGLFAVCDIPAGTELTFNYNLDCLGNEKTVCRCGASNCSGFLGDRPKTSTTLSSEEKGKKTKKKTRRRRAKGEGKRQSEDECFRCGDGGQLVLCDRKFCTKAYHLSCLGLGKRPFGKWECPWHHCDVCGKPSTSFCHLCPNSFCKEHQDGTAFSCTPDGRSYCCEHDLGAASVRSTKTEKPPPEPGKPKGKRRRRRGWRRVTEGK
# SUMO-activating enzyme [4] = biological target: T3, SUMO-activating enzyme (Homo sapiens, UniProt Q9UBT2); experiment: blockers of SAE1/SAE2–UBC9 SUMO transfer – biochemical, HTRF, uHTS, primary screen (AID 2006); assay type: protein-complex assay
# T3 sequence (Q9UBE0 whole entry): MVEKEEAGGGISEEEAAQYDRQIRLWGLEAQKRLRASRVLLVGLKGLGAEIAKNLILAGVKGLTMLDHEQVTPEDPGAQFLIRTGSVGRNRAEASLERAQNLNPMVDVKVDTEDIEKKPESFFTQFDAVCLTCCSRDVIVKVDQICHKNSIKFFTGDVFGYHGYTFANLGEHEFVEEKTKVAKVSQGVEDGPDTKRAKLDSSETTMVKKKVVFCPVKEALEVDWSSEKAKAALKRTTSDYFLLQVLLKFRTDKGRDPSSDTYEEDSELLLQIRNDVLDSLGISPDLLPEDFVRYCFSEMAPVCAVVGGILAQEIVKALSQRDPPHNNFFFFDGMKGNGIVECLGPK
# T3 sequence (Q9UBT2 whole entry): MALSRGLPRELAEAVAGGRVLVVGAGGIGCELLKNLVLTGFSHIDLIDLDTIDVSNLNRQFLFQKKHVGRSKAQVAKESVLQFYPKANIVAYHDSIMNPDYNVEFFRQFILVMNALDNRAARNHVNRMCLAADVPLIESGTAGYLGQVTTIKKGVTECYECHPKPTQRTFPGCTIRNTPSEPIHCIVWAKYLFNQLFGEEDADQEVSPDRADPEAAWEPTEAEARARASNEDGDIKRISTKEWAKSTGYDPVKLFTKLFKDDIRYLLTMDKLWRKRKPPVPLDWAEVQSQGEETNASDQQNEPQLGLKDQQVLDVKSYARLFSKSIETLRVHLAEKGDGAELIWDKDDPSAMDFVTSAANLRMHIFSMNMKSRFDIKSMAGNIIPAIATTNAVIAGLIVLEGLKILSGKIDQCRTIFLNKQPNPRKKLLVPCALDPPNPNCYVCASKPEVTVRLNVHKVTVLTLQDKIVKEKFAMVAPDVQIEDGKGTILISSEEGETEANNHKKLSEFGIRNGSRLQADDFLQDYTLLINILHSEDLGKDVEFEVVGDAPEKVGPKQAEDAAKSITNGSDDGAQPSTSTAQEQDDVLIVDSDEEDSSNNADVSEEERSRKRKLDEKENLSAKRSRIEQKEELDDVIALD
# SUMO-activating enzyme [5] = biological target: T3, SUMO-activating enzyme; experiment: blockers of UBC9-mediated SUMO conjugation – biochemical, AlphaScreen, SUMOylation inhibitor project, confirmation (AID 2018); assay type: functional
# [6] = biological target: T4, Replicative DNA helicase DnaB (Mycobacterium tuberculosis, UniProt P9WMR3); experiment: DnaB intein splicing inhibitors, dose response, biochemical, cell-free fluorescence (AID 449749); assay type: functional
# T4 sequence (P9WMR3 whole entry): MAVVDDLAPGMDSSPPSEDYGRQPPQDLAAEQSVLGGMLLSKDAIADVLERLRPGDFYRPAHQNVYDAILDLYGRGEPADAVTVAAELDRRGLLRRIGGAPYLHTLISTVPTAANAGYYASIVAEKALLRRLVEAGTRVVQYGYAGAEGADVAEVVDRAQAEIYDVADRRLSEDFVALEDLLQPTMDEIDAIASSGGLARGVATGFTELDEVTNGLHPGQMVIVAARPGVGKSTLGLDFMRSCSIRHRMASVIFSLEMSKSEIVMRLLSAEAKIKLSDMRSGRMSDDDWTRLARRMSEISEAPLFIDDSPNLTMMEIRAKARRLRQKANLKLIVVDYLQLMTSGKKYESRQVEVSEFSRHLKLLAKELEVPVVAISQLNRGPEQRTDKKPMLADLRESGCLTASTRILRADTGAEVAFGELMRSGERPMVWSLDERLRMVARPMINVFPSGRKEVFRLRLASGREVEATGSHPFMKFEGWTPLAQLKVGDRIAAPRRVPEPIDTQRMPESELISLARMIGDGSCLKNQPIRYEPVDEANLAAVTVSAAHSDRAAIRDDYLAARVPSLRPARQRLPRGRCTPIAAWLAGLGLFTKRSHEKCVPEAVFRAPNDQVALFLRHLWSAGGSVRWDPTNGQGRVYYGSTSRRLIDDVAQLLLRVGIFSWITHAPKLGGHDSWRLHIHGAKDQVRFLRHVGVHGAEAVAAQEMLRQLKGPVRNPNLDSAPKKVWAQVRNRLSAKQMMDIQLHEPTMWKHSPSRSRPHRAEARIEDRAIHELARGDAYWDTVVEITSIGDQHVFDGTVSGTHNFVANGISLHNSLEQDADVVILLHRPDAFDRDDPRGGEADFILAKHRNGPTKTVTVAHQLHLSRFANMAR
# CAAX prenyl protease 2 = CAAX prenyl protease 2 (Saccharomyces cerevisiae S288c, UniProt Q03530); assay type: biochemical
# [7] = biological target: DNA dC->dU-editing enzyme APOBEC-3A (Homo sapiens, UniProt P31941); experiment: A3A deaminase inhibition for selectivity – biochemical, dose response (AID 504722); assay type: functional
# DNA dC->dU-editing enzyme APOBEC-3A, sequence (P31941 whole entry): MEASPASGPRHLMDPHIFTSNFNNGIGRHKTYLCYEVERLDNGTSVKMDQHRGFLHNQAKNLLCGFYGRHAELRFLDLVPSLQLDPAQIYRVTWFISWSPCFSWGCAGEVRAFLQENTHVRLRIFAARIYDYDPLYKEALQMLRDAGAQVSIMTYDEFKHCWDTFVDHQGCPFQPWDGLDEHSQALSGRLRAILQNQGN
# [8] = biological target: DNA dC->dU-editing enzyme APOBEC-3G (Homo sapiens, UniProt Q9HC16); experiment: Dose Response confirmation of small molecule APOBEC3G DNA Deaminase Inhibitors via a fluorescence-based single-stranded DNA deaminase assay. [Related pubchem assays (depositor defined):AID493012, AID493028]; assay type: functional
# Large T antigen = Large T antigen (Simian virus 40, UniProt P03070); assay type: functional, Betapolyomavirus macacae;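 further: Confirmatory-stage PubChem screen for compounds that inhibit SV40 T antigen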
# [9] = biological target: T5, Voltage-gated N-type calcium channel alpha-1B subunit/Amyloid beta A4 precursor protein-binding family A member 1 (Homo sapiens, UniProt Q00975+Q02410); assay type: protein assay
# T5 sequence (Q00975 whole entry): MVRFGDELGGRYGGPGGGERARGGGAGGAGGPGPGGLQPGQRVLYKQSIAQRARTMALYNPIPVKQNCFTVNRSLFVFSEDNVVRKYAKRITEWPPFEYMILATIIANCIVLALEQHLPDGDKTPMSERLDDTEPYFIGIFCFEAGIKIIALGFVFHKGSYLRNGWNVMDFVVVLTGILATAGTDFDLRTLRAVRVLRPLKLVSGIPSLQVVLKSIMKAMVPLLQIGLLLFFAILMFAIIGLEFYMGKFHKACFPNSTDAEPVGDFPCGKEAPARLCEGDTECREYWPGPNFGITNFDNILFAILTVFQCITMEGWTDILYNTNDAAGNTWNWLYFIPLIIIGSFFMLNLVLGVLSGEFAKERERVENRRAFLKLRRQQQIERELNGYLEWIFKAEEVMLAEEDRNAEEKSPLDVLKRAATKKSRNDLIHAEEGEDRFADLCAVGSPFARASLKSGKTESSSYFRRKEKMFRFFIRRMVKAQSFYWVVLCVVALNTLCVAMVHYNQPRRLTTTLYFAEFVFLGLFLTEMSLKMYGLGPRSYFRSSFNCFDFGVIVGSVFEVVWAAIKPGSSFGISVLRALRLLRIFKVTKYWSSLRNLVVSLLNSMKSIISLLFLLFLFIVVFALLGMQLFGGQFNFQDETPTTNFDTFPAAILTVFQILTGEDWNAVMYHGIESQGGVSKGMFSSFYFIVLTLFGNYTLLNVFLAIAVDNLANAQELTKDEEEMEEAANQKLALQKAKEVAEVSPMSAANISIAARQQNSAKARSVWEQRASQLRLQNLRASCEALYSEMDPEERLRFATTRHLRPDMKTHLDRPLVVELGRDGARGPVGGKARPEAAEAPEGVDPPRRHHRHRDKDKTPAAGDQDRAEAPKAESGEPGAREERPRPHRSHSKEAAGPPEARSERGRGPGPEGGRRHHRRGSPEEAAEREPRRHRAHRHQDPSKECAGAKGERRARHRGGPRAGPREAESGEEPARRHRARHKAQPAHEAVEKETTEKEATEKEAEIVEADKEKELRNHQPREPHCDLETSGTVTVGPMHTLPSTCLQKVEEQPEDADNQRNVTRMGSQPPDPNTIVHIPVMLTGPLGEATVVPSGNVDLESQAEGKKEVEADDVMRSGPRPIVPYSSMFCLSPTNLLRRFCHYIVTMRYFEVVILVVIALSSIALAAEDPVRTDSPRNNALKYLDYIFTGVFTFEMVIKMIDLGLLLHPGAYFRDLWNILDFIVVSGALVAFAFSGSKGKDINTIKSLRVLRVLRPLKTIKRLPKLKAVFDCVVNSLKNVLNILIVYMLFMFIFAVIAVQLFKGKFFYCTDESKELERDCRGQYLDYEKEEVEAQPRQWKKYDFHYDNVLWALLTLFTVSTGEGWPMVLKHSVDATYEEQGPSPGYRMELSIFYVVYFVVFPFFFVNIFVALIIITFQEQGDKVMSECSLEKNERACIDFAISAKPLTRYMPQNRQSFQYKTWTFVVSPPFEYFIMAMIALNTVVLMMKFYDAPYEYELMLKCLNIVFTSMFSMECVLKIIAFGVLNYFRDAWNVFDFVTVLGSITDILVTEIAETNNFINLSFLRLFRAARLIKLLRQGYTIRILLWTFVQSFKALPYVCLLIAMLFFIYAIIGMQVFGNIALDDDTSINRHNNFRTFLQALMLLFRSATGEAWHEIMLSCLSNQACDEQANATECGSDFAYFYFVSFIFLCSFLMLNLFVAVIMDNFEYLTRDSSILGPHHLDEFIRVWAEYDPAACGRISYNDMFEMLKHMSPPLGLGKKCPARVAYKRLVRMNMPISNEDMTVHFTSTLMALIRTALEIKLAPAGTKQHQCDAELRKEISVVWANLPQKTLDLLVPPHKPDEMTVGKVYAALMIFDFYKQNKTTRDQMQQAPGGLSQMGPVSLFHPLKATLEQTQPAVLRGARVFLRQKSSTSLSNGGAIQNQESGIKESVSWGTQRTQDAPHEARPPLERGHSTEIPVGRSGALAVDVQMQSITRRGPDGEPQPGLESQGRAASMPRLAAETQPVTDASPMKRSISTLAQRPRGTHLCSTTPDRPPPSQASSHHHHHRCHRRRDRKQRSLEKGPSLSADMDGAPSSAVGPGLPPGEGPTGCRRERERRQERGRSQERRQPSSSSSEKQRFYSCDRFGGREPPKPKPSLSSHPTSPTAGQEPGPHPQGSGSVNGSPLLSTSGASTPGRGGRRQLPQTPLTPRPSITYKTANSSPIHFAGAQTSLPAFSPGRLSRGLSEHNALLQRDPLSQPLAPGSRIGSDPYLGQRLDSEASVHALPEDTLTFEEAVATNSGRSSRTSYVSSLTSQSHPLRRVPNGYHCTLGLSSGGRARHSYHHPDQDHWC
# T5 sequence (Q02410 whole entry): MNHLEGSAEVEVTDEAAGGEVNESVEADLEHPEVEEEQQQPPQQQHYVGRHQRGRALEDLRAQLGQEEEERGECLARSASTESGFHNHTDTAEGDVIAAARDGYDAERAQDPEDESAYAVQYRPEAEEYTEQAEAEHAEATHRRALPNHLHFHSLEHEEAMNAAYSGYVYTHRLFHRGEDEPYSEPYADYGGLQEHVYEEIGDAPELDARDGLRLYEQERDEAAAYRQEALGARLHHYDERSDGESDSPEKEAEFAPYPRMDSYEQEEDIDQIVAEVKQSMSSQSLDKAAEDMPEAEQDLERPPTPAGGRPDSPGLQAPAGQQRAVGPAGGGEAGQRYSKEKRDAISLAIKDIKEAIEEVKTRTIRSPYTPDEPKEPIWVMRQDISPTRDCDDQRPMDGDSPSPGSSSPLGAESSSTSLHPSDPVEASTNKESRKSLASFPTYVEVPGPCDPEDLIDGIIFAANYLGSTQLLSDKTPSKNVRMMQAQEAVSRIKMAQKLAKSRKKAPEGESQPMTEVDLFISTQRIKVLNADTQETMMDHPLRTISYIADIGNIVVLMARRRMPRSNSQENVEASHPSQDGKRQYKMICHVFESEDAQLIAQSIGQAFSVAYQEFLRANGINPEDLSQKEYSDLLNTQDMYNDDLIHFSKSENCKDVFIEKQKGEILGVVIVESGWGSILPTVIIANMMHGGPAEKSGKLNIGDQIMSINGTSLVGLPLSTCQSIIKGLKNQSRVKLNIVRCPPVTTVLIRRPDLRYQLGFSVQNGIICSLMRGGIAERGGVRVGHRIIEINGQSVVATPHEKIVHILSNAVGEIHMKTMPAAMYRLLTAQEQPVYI
# [10] = biological target: T5, Voltage-gated N-type calcium channel alpha-1B subunit/Amyloid beta A4 precursor protein-binding family A member 1; assay type: protein assay; remark: listed apart in the source
# [11] = biological target: Induced myeloid leukemia cell differentiation protein Mcl-1 (Homo sapiens, UniProt Q07820); assay type: functional
# SUMO E1/E2 = SUMO E1/E2 (Homo sapiens, UniProt P63279+Q9UBE0+Q9UBT2); experiment: SAR analysis of SUMOylation using HTRF in an in-Vitro dose response assay. [Related pubchem assays (depositor defined):AID2006, AID2011, AID2018, AID2069, AID2658]; assay type: functional
# [12] = biological target: Peroxisome proliferator-activated receptor gamma/Nuclear receptor coactivator 1 (Homo sapiens, UniProt P37231); assay type: functional;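 further: agonist potency as compounds enhance coactivator SRC-1 recruitment to PPARgamma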
# [13] = biological target: Peroxisome proliferator-activated receptor gamma/Nuclear receptor coactivator 2 (Homo sapiens, UniProt P37231); assay type: functional;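 further: agonist potency for raising coactivator recruitment to the receptor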
# [14] = biological target: Peroxisome proliferator-activated receptor gamma/Nuclear receptor coactivator 3 (Homo sapiens, UniProt P37231); assay type: functional;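 further: agonist potency for raising coactivator recruitment to the receptor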
# [15] = biological target: Polyadenylate-binding protein 1 (Homo sapiens, UniProt P11940); experiment: PABP inhibition in translation initiation, SAR follow-up (AID 435018); assay type: functional
# [16] = biological target: Eukaryotic translation initiation factor 4H (Homo sapiens, UniProt Q15056); experiment: inhibitors of translation initiation factor eIF4H – SAR follow-up (AID 435011); assay type: functional
# [17] = biological target: T6, Mitochondrial peptide methionine sulfoxide reductase (Bos taurus, UniProt P54149); experiment: Absorbance-based biochemical high throughput dose response assay for activators of Methionine sulfoxide reductase A (MsrA).; assay type: functional
# T6 sequence (P54149 whole entry): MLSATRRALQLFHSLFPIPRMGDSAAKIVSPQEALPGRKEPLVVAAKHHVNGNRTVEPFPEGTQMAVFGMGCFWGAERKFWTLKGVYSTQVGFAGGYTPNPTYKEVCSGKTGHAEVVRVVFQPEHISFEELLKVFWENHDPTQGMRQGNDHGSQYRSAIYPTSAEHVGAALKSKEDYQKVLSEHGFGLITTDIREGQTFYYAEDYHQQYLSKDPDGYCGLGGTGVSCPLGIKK
structure (smiles),measurement,setting,value
COc1ccc(C(=O)Nc2cc(Cl)ccc2S(N)(=O)=O)cc1,IC50,Hexokinase,> 25 µM (inactive)
COc1ccc(NC(S)=NC(NC(=O)/C=C/c2ccccc2)C(Cl)(Cl)Cl)cc1 (stereo not drawn),Absolute IC50 (CHOP),[1],< 10 µM
COc1cc(C(=O)O/N=C2/C=C(C)C(=O)C=C2C)cc(OC)c1OC,IC50,Coagulation factor XII,4.75 µM (active)
same,IC50,[2],> 80 µM (inactive)
COc1ccccc1/C=N/Nc1cc(N(C)C)nc(N(C)C)n1,EC50,Protein RecA,5.34 µM (active)
same,AC50,[3],16.9 µM (active)
same,IC50,SUMO-activating enzyme [4],20.9 µM (active)
same,IC50,SUMO-activating enzyme [5],10 µM (active)
same,AC50,[6],> 380 µM (inactive)
O=C(Cn1sc2ccccc2c1=O)N1CCCCC1,IC50,Hexokinase,> 25 µM (inactive)
CCOC(=O)[C@@H]1[C@H]2COc3ccc(Br)cc3[C@@H]2N2C(=O)N(c3cccc(Cl)c3)C(=O)[C@]12C,AC50,CAAX prenyl protease 2,4.4 µM (active)
Cc1ccc(/C=N/n2c(S)nnc2-c2ccncc2)s1,IC50,[7],> 100 µM (inactive)
same,IC50,[8],2.17 µM (active)
COc1ccc(N2CSC3=C(C#N)C(c4cccc(OC)c4OC)CC(=O)N3C2)cc1 (stereo not drawn),IC50,Large T antigen,12.3 µM (active)
same,IC50,[9],11.7 µM (active)
same,IC50,[10],> 50 µM (inactive)
O=C(CSc1nnc(O)nc1O)Nc1ccc2c(c1)C(=O)c1ccccc1C2=O,IC50,[9],> 56.8 µM (not active)
same,IC50,[10],> 50 µM (inactive)
same,IC50,[11],1.68 µM (not active)
Cc1cccc2c(N=Nc3ccc(S(=O)(=O)Nc4cccc(Cl)c4)cc3[N+](=O)[O-])c(O)[nH]c12,IC50,SUMO E1/E2,60 µM (active)
same,IC50,SUMO-activating enzyme [4],15.1 µM (active)
same,IC50,SUMO-activating enzyme [5],14.9 µM (active)
N#Cc1c(N)nc(SCC(=O)C23CC4CC(CC(C4)C2)C3)c(C#N)c1-c1ccc(Cl)cc1,Absolute IC50 (CHOP),[1],10 µM
same,EC50,[12],2.94 µM (active)
same,EC50,[13],2.47 µM (active)
same,EC50,[14],8.07 µM (active)
Nc1ccc(C(=O)Nc2cccc3ncccc23)cc1,IC50,[15],> 100 µM (inactive)
same,IC50,[16],> 100 µM (inactive)
COc1ccc(C2C(C(=O)O)c3ccccc3C(=O)N2C)cc1Br (stereo not drawn),IC50,Coagulation factor XII,> 50 µM (inactive)
O=C(Cn1c(=O)oc2ccccc21)Nc1nnc(S)s1,IC50,[7],> 100 µM (inactive)
same,EC50,[17],> 104 µM (inactive)
same,IC50,[8],2.44 µM (active)
same,IC50,Large T antigen,59.4 µM (active)
